In patent US20230116399A1, “Tumor Homing Statin Derivatives” (Da Zen Theranostics, Inc., priority 2019, published 2023):

Experiments:
A549DDP (LC) = experiment: MTT cell viability, A549DDP; assay type: cell-based, human; conditions: 48 h / 24 hours, relative IC50
Procedure: (§1) Cell culture: In the following examples, unless otherwise specified, all cell lines are purchased from American Type Culture Collection and cultured in American Type Culture Collection (ATCC)-recommended media, with fetal bovine serum (FBS) to a final concentration of 10% and 1×penicillin/streptomycin at 37° C. with 5% CO2 in a cell culture incubator, unless otherwise specified. Unless otherwise specified, culture is 2D. Where culture is 3D, low attachment plates are used, with the same media. C4-2B (parental cell line and drug-resistant cells derived therefrom) are cultured in RPMI-1640 with 10% FBS. MDVR cells (an Enzalutamide-resistant variety of C4-2B prostate cancer cells formed as described in Example 4 below) are cultured as indicated for the parental C4-2B cells. 22RV1 Prostate Cancer (PC) cells (ATCC® CRL-2505™, a human prostate carcinoma cell line of epithelial morphology) are cultured in RPMI-1640 with 10% FBS. A549 cells (ATCC® CCL-185™, a human lung carcinoma cell line of epithelial morphology) are cultured in F-12K medium with 10% FBS. A549/DDP cells (Cells were described in DOI: 10.3892/mmr.2014.2163 and in doi: 10.7150/jca.19426; cisplatin resistant cells may be established from exposing parental A549 cells to cisplatin for an extended time). MDR A549/cisplatin lung adenocarcinoma cell line, drug resistant) are cultured in F-12K medium with 10% FBS. H1975 cells (ATCC® CRL-5908™, a human adenocarcinoma non-small cell lung cancer cell line of epithelial morphology) are cultured in RPMI-1640 medium with 10% FBS; H1975 cells are a cell model for human lung cancer that is resistant to Gefitinib (an EGFR inhibitor drug used for treatment of certain breast, lung and other cancers). H1650 cells (ATCC® CRL-5883™, a adenocarcinoma/bronchoalveolar carcinoma lung cancer cell line of epithelial morphology) are cultured in RPMI-1640 medium with 10% FBS. […]
[…] For each cell line, the IC50 is determined for each drug, i.e. the ELSD, the ALSD, and for the corresponding unconjugated statin (Simvastatin), in concentrations from 0.1-100 μM. […]

H1650 (LC) = experiment: MTT cell viability, H1650; assay type: cell-based, human; conditions: relative IC50
Procedure: as §1

H1975 (LC) = experiment: MTT cell viability, H1975; assay type: cell-based, human; conditions: relative IC50
Procedure: as §1

A549 (LC) = experiment: MTT cell viability, A549; assay type: cell-based, human; conditions: 48 h / 24 hours, relative IC50
Procedure: as §1

H446 (LC) = experiment: MTT cell viability, H446; assay type: cell-based, human; conditions: relative IC50
Procedure: as §1

PC9 (LC) = experiment: MTT cell viability, PC9; assay type: cell-based, human; conditions: 48 h / 24 hours, relative IC50
Procedure: as §1

PC3 (PC) = experiment: MTT cell viability, PC3; assay type: cell-based; conditions: Homo sapiens, 48 h / 24 hours, relative IC50
Procedure: as §1, with “FBS.” for “FBS. H1975 cells (ATCC® CRL-5908™, a human adenocarcinoma non-small cell lung cancer cell line of epithelial morphology) are cultured in RPMI-1640 medium with 10% FBS; H1975 cells are a cell model for human lung cancer that is resistant to Gefitinib (an EGFR inhibitor drug used for treatment of certain breast, lung and other cancers). H1650 cells (ATCC® CRL-5883™, a adenocarcinoma/bronchoalveolar carcinoma lung cancer cell line of epithelial morphology) are cultured in RPMI-1640 medium with 10% FBS.”

Row | SMILES | IC50 (A549DDP (LC); Homo sapiens, A549/DDP) [µM] | IC50 (H1650 (LC); Homo sapiens, NCI-H1650, 48 h / 24 hours) [µM] | IC50 (H1975 (LC); Homo sapiens, NCI-H1975, 48 h / 24 hours) [µM] | IC50 (A549 (LC); Homo sapiens) [µM] | IC50 (H446 (LC); Homo sapiens, NCI-H446, 48 h / 24 hours) [µM] | IC50 (PC9 (LC); Homo sapiens) [µM] | IC50 (PC3 (PC)) [µM] | IC50 (A549DDP (LC)) [µM] | IC50 (H1650 (LC); 48 h / 24 hours) [µM] | IC50 (H1975 (LC); 48 h / 24 hours) [µM] | IC50 (A549 (LC)) [µM] | IC50 (H446 (LC); 48 h / 24 hours) [µM] | IC50 (PC9 (LC)) [µM]
1 | CCC(C)(C)C(=O)O[C@H]1C[C@@H](C)C=C2C=C[C@H](C)[C@H](CC[C@@H]3C[C@@H](O)CC(=O)O3)[C@H]21 [Simvastatin] | 30 | 33.3 | > 50 | > 50 | 39 | 33 | 14.8 | – | – | – | – | – | –
2 | CC1(C)C(/C=C/C2=C(Cl)C(=C/C=C3/N(CCCCCC(=O)O)c4ccccc4C3(C)C)/CCC2)=[N+](CCCCS(=O)(=O)[O-])c2ccccc21 [DZ1] | – | – | – | – | – | – | – | > 50 | > 50 | > 50 | > 50 | > 50 | > 50
